From US10392366B2, “Azetidine compounds as GPR119 modulators for the treatment of diabetes, obesity, dyslipidemia and related disorders” (SANOFI, priority 2017, dated 2019) come the findings set out here.

The assay concerns the target T1, human GPR119 (Homo sapiens, UniProt Q8TDV5).
T1 construct: expressed in transfected cells
T1 sequence (Q8TDV5 1-335): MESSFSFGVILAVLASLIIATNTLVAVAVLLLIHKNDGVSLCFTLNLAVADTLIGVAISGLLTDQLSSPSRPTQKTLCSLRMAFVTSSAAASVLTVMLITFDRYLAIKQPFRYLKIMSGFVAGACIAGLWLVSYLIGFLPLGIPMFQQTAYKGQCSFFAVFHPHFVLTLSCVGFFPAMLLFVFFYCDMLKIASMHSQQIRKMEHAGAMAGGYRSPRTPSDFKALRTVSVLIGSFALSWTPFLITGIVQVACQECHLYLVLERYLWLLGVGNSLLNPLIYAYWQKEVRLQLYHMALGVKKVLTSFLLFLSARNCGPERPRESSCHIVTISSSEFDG
The assay is described as follows: Functional cellular assay measuring GPR119-mediated cAMP release (HTRF) in HEK-293 cells stably expressing recombinant GPR119. The format is cell-based. As to conditions: cell line expressing human GPR119, 30 minutes at room temperature. On the procedure:
Functional Cellular Assays Measuring GPR119-mediated cAMP Release
Compounds of the present disclosure, which are agonists of GPR119, were characterized by functional assays measuring the cAMP response of HEK-293 cell lines stably expressing recombinant GPR119 from man, mouse or rat, or by using the hamster cell line HIT-T15 expressing GPR119 endogenously. The cAMP content was determined using a kit based on homogenous time-resolved fluorescence (HTRF) from Cisbio Corp. (cat. no. 62AM4PEC). For preparation, cells were split into T175 culture flasks and grown to near confluency in medium (DMEM/10% FCS for HEK-293 cells, and F-12K medium/10% horse serum/2.5% FCS for HIT-T15 cells, respectively). Medium was then removed and cells washed with PBS lacking calcium and magnesium ions, followed by proteinase treatment with accutase (Sigma-Aldrich, cat. no. A6964). Detached cells were washed and resuspended in assay buffer (1×HBSS; 20 mM HEPES, 0.1% BSA, 2 mM IBMX) and cellular density determined. They were then diluted to 400000 cells/mL and 25 μL-aliquots dispensed to the wells of 96-well plates. For measurement, 25 μL of test compound in assay buffer was added and incubated for 30 minutes at room temperature. After addition of HTRF reagents diluted in lysis buffer, the plates were incubated for 1 hour, followed by measuring the fluorescence ratio at 665 vs. 620 nm. Potency of the agonists was quantified by determining the concentrations that caused 50% of the maximal response/activation (EC50). See Table 6 for exemplary data obtained using the cell line expressing human GPR119.

As to `C[S+]([O-])C1CN(c2ncc(N3CC[C@@H](Oc4ccc(C(=O)C5CC5)cc4)C3=O)cn2)C1` (single isomer, unassigned) [Compound 1-20], the EC50 (in general, the midpoint of the concentration-response curve) came out at 1970 nM. `C[S+]([O-])C1CN(c2ncc(N3CC[C@@H](Oc4ccc(C(=O)C5CC5)cc4)C3=O)cn2)C1` (single isomer, unassigned) [Compound 1-21]: the EC50 was 991 nM. On to `C[S+]([O-])C1CN(c2ncc(N3CC[C@@H](Oc4ccc(OCC(F)(F)F)nc4)C3=O)cn2)C1` (single isomer, unassigned) [Compound 1-24], for which the EC50 is 335 nM.

Turning to `C[S+]([O-])C1CN(c2ncc(N3CC[C@@H](Oc4ccc(OCC(F)(F)F)nc4)C3=O)cn2)C1` (single isomer, unassigned) [Compound 1-25], the EC50 turned out to be 292 nM.

Regarding `CC(C)[S+]([O-])C1CN(c2ncc(N3CC[C@@H](Oc4ccc(OCC(F)(F)F)nc4)C3=O)cn2)C1` (single isomer, unassigned) [Compound 1-35], the EC50 came out at 181 nM. Turning to `CC(C)[S+]([O-])C1CN(c2ncc(N3CC[C@@H](Oc4ccc(OCC(F)(F)F)nc4)C3=O)cn2)C1` (single isomer, unassigned) [Compound 1-36], the EC50 amounted to 158 nM. As to `CN(C)C(=O)C1CN(c2ncc(N3CCC(Cc4ccc(OCC(F)(F)F)nc4)C3=O)cn2)C1` (single isomer, unassigned) [Compound 1-42], the EC50 stood at 157 nM.

As for `CS(=O)(=O)C1CN(c2ncc(N3CCC(Cc4ccc(OCC(F)(F)F)nc4)C3=O)cn2)C1` (single isomer, unassigned) [Compound 1-43], the EC50 is 116 nM.

For the compound `CS(=O)(=O)C1CN(c2ncc(N3CCC(Cc4ccc(OCC(F)(F)F)nc4)C3=O)cn2)C1` (single isomer, unassigned) [Compound 1-44], the EC50 was determined as 138 nM. Take `CN(C)C(=O)C1CN(c2ncc(N3CCC(Cc4ccc(OCC(F)(F)F)nc4)C3=O)cn2)C1` (single isomer, unassigned) [Compound 1-45]: the EC50 came out at 203 nM. Turning to `C[S+]([O-])C1CN(c2ncc(N3CCC(Cc4ccc(OCC(F)(F)F)nc4)C3=O)cn2)C1` (single isomer, unassigned) [Compound 1-46], the EC50 amounted to 411 nM. Regarding `C[S+]([O-])C1CN(c2ncc(N3CCC(Cc4ccc(OCC(F)(F)F)nc4)C3=O)cn2)C1` (single isomer, unassigned) [Compound 1-47], the EC50 was 1630 nM.

Consider `N#Cc1cc(N2CC[C@@H](Oc3ccc(OCC4CC4)nc3)C2=O)cnc1N1CC(O)C1` [Compound 1-01], for which the EC50 stood at 57 nM. On to `O=C1[C@H](Oc2ccc(OCC3CC3)nc2)CCN1c1cnc(N2CC(O)C2)c(F)c1` [Compound 1-02], for which the EC50 turned out to be 206 nM. Take `N#Cc1cc(N2CC[C@@H](Oc3ccc(Oc4ccc(F)cc4)nc3)C2=O)cnc1N1CC(O)C1` [Compound 1-03]: the EC50 was found to be 255 nM. `CN(C)C(=O)C1CN(c2ncc(N3CC[C@@H](Oc4ccc(OCC5CC5)nc4)C3=O)cc2F)C1` [Compound 1-04]: the EC50 worked out at 70 nM. Consider `CN(C)C(=O)C1CN(c2ncc(N3CC[C@@H](Oc4ccc(OCC5CC5)nc4)C3=O)cc2C#N)C1` [Compound 1-05], for which the EC50 was 61 nM. In the case of `CN(C)C(=O)C1CN(c2ccc(N3CC[C@@H](Oc4ccc(OCC5CC5)nc4)C3=O)cn2)C1` [Compound 1-06] it was 170 nM; in that of `COC(=O)C1CN(c2ccc(N3CC[C@@H](Oc4ccc(OCC5CC5)nc4)C3=O)cn2)C1` [Compound 1-07], 30 nM; in that of `CN(C)C(=O)C1CN(c2ncc(N3CC[C@@H](Oc4ccc(Oc5ccc(F)cc5)nc4)C3=O)cc2C#N)C1` [Compound 1-08], 92 nM. To `CN(C)C(=O)C1CN(c2ncc(N3CC[C@@H](Oc4ccc(OCC(F)(F)F)nc4)C3=O)cc2C#N)C1` [Compound 1-09] belongs 64 nM. In the case of `CN(C)C(=O)C1CN(c2ccc(N3CC[C@@H](Oc4ccc(OCC(F)(F)F)nc4)C3=O)cn2)C1` [Compound 1-10], the EC50 is 44 nM. Turning to `CN(C)C(=O)C1CN(c2ccc(N3CC[C@H](Oc4ccc(OCC(F)(F)F)nc4)C3=O)cn2)C1` [Compound 1-11], the EC50 was determined as 421 nM. `CN(C)C(=O)C1CN(c2ncc(N3CC[C@@H](Oc4ccc(OCC(F)(F)F)nc4)C3=O)cn2)C1` [Compound 1-12]: the half-maximal effective concentration (EC50) worked out at 50 nM.

Regarding `CN(C)C(=O)C1CN(c2ncc(N3CC[C@H](Oc4ccc(OCC(F)(F)F)nc4)C3=O)cn2)C1` [Compound 1-13], the EC50 came to 257 nM.

`C[S+]([O-])C1CN(c2ncc(N3CC[C@@H](Oc4ccc(Oc5ccc(F)cc5)nc4)C3=O)cn2)C1` (stereo partly drawn) [Compound 1-14]: the EC50 is 2070 nM. On to `C[S+]([O-])C1CN(c2ncc(N3CC[C@@H](Oc4ccc(OCC(F)(F)F)nc4)C3=O)cn2)C1` (stereo partly drawn) [Compound 1-15], for which the EC50 was found to be 248 nM. With `CS(=O)(=O)C1CN(c2ncc(N3CC[C@@H](Oc4ccc(OCC(F)(F)F)nc4)C3=O)cn2)C1` [Compound 1-16], the EC50 amounted to 58 nM.

As for `CS(=O)(=O)C1CN(c2ncc(N3CC[C@@H](Oc4ccc(C(=O)C5CC5)cc4)C3=O)cn2)C1` [Compound 1-17], the EC50 is 122 nM. To `CS(=O)(=O)C1CN(c2ncc(N3CC[C@@H](Oc4ccc(Oc5ccc(F)cc5)nc4)C3=O)cn2)C1` [Compound 1-18] belongs 343 nM. To `CN(C)C(=O)C1CN(c2ncc(N3CC(C)(C)C(Oc4ccc(OCC(F)(F)F)cc4)C3=O)cn2)C1` (stereo not drawn) [Compound 1-19] belongs 180 nM. To `O=C1[C@H](Oc2ccc(OCC(F)(F)F)nc2)CCN1c1cnc(N2CC(O)C2)nc1` [Compound 1-22] belongs 872 nM; to `CN(C)C(=O)C1CN(c2ncc(N3CC[C@@H](Oc4ccc(Oc5ccc(F)cc5)nc4)C3=O)cn2)C1` [Compound 1-23], 189 nM. As for `O=C1[C@H](Oc2ccc(OCC(F)(F)F)nc2)CCN1c1cnc(N2CC3(CCNC3=O)C2)nc1` [Compound 1-26], the EC50 was found to be 448 nM. In the case of `CS(=O)(=O)C1CN(c2ncc(N3CC[C@H](Oc4ccc(C(=O)C5CC5)cc4)C3=O)cn2)C1` [Compound 1-27], the EC50 amounted to 2210 nM. With `CN1CCC2(CN(c3ncc(N4CC[C@@H](Oc5ccc(OCC(F)(F)F)nc5)C4=O)cn3)C2)C1=O` [Compound 1-28], the EC50 came out at 290 nM. `CC(C)SC1CN(c2ncc(N3CC[C@@H](Oc4ccc(OCC(F)(F)F)nc4)C3=O)cn2)C1` [Compound 1-29]: the EC50 is 16 nM.

With `COC(=O)CC1CN(c2ncc(N3CC[C@@H](Oc4ccc(OCC(F)(F)F)nc4)C3=O)cn2)C1` [Compound 1-30], the EC50 came out at 334 nM.

Regarding `CN(C)C(=O)C1CN(c2ncc(N3CC[C@@H](Oc4ccc(OCC(F)(F)F)nc4)C3=O)cn2)C1` [Compound 1-31], the EC50 worked out at 129 nM.

For `CS(=O)(=O)C1CN(c2ncc(N3CCC(Cc4ccc(C(=O)C5CC5)cc4)C3=O)cn2)C1` (stereo not drawn) [Compound 1-32], the EC50 came out at 195 nM.

On to `CS(=O)(=O)C1CN(c2ncc(N3CC[C@@H](Oc4ccc(C(=O)C5CC5)nc4)C3=O)cn2)C1` [Compound 1-33], for which the EC50 stood at 664 nM. `O=C1[C@H](Oc2ccc(OCC(F)(F)F)nc2)CCN1c1cnc(N2CC(N3CCCC3=O)C2)nc1` [Compound 1-34]: the EC50 was determined as 369 nM.

With `CC(C)S(=O)(=O)C1CN(c2ncc(N3CC[C@@H](Oc4ccc(OCC(F)(F)F)nc4)C3=O)cn2)C1` [Compound 1-37], the 50% effective concentration (EC50) is 71 nM. Regarding `NC1CN(c2ncc(N3CC[C@@H](Oc4ccc(OCC(F)(F)F)nc4)C3=O)cn2)C1` [Compound 1-38], the EC50 is 9840 nM.

For `CS(=O)(=O)C1CN(c2ncc(N3CC[C@@H](Oc4ccc(C(=O)C5CC5)c(F)c4)C3=O)cn2)C1` [Compound 1-39], the EC50 amounted to 179 nM. On to `C[S+]([O-])C1CN(c2ncc(N3CC[C@@H](Oc4ccc(C(=O)C5CC5)c(F)c4)C3=O)cn2)C1` (stereo partly drawn) [Compound 1-40], for which the EC50 was determined as 1820 nM. Consider `CC(C)[S+]([O-])C1CN(c2ncc(N3CC[C@@H](Oc4ccc(C(=O)C5CC5)c(F)c4)C3=O)cn2)C1` (stereo partly drawn) [Compound 1-41], for which the EC50 amounted to 221 nM. To `CN(C)C(=O)C1CN(c2ncc(N3CC(C)(C)C(Oc4ccc(C(=O)C5CC5)cc4)C3=O)cn2)C1` (stereo not drawn) [Compound 1-48] belongs 752 nM; to `CN(C)C(=O)C1CN(c2ncc(N3CC(C)(C)C(Oc4ccc(C(=O)C5CC5)nc4)C3=O)cn2)C1` (stereo not drawn) [Compound 1-49], 1360 nM. As for `CS(=O)(=O)C1CN(c2ncc(N3CC[C@H](Oc4ccc(OCC(F)(F)F)nc4)C3=O)cn2)C1` [Compound 1-50], the EC50 turned out to be 321 nM. Turning to `CC(C)[S+]([O-])C1CN(c2ncc(N3CC[C@@H](Oc4ccc(OCC(F)(F)F)nc4)C3=O)cn2)C1` (stereo partly drawn) [Compound 1-51], the EC50 worked out at 93 nM.
